In patent US20180119123A1, “CRISPR/CAS-RELATED METHODS AND COMPOSITIONS FOR TREATING HIV INFECTION AND AIDS” (EDITAS MEDICINE, INC., priority 2015, published 2018):
Entries after “also recorded” stand apart in the source; their conditions may differ.

Test system: CXCR4 locus
Assay: T7E1 assay for indels/NHEJ at the CXCR4 locus in Nucleofected CD34+ HSCs
Format: cell-based, human
Conditions: 40 nM UM171; S. aureus or S. pyogenes Cas9 and CXCR4 gRNA plasmids; 96 hours
Experimental: For the T7E1 assay, PCR amplicons are approximately 500-700 bp with the intended cut site placed asymmetrically in the amplicon. Following amplification, purification and size-verification of PCR products, DNA is denatured and re-hybridized by heating to 95° C. and then slowly cooling. Hybridized PCR products are then digested with T7 Endonuclease I (or other mismatch-sensitive enzyme) which recognizes and cleaves non-perfectly matched DNA. […] Digestion products may be visualized by gel electrophoresis or by capillary electrophoresis. The fraction of DNA that is cleaved (density of cleavage products divided by the density of cleaved and uncleaved) may be used to estimate a percent NHEJ using the following equation: % NHEJ=(1-(1-fraction cleaved)^1/2). The T7E1 assay is sensitive down to about 2-5% NHEJ.
Human CD34^+ HSCs cells from mobilized peripheral blood (AllCells) were thawed into StemSpan Serum-Free Expansion Medium (SFEM, StemCell Technologies) containing 100 ng/mL each of the following cytokines: human stem cell factor (SCF), thrombopoietin (TPO), and flt-3 ligand (FL) (all from Peprotech). […]
In order to detect indels at the CXCR4 locus, T7E1 assays were performed on CXCR4 locus-specific PCR products that were amplified from genomic DNA samples from Nucleofected™ CD34^+ HSCs and then calculated the percentage of NHEJ detected at the CXCR4 locus (FIG. 11B).

Cn1nnc(-c2ccc3c(c2)[nH]c2nc(Cc4ccccc4)nc(N[C@H]4CC[C@H](N)CC4)c23)n1 [UM171, (1r,4r)-N1-(2-benzyl-7-(2-methyl-2H-tetrazol-5-yl)-9H-pyrimido[4,5-b]indol-4-yl)cyclohexane-1,4-diamine]
Percentage of genome editing at the CXCR4 locus with UM171 pre-treatment versus without: higher percentage of genome editing at the CXCR4 locus; also recorded: increased genome editing at the CXCR4 locus
